Measurements reported in patent US20090227546A1, “PHARMACEUTICAL COMPOSITION OF DROSPIRENONE AND ETHYNYLESTRADIOL” (Laboratories Liconse, S.A., priority 2004, published 2009).

Tests used:
[1] = Dissolution profile of crystalline drospirenone tablets in acidic medium (USP 27 apparatus 2); format: physicochemical; details: HCl 0.1 N, regardless of the size of the particle, FIG. 16
Method: The dissolution profiles were obtained from tablets containing drospirenone in a crystalline state with different sized particles, using a dissolution apparatus designated in the U.S. Pharmacopoeia, Edition 27, apparatus 2, at 50 rpm and 900 ml of lauryl sulfate 0.07% in a strongly acidic medium, HCl 0.1 N, thermostatized at 37° C.

[2] = Dissolution of drospirenone in methanol as granulation solvent; format: physicochemical
Method: About 16.00 ml of the dichloromethane/methanol solution at about a 6:1 ratio were placed in a stainless steel stirring apparatus. Next, about 0.0306 g of ethynylestradiol, non-micronized with a particle size no less than about 50 μm (addition of an excess of about 2% was foreseen to make up for losses during the process), were added under constant stirring. The mixture was shaken/stirred until completely dissolved. About 3.0600 g of drospirenone, non-micronized with a particle size no less than about 50 μm (addition of an excess of about 2% was foreseen to make up for losses during the process), were added under constant stirring until completely dissolved. Once dissolved, about 3.4000 g of polyvinylpyrrolidone K-30 were added with stirring until completely dissolved.
Only about 16 ml methanol was used in this example, which compares to substantially the same volume as the about 16 ml methylene chloride/methanol (about 6:1) used in example 1. […] Recall that in example 1 drospirenone was completely dissolved. Again, the process was conducted in accordance with example 1, including the step of “Granulation—Drying” where a planetary-type mixer was used and the mixture kneaded. The name of the final batch granulated: LPDIMet-16 ml.
In an extra experiment related to this Example 2, in the step “Dissolution of the active ingredients and binder” methanol was added until complete dissolution. […]

C[C@]12CCC(=O)C=C1[C@@H]1C[C@@H]1[C@H]1[C@@H]3[C@@H]4C[C@@H]4[C@@]4(CCC(=O)O4)[C@@]3(C)CC[C@@H]12 [drospirenone, 6β,7β,15β,16β-dimethylene-3-oxo-17α-pregn-4-ene-21,17-carbolactone]
stability of drospirenone in an acidic medium [1]: instability | amount of methanol required for complete dissolution ([2]; about 3.06 g drospirenone and about 0.0306 g ethynylestradiol): about 154.3 ml | dissolution of drospirenone in about 16 ml methanol ([2]; about 3.06 g drospirenone, methanol only): not enough for the total dissolution
